The series concerns CCRIS mutagenicity, Ames/micronucleus/aberration tests. The experiment in a line: CCRIS mutagenicity studies.
Setting [1] is: Test System: AMES SALMONELLA TYPHIMURIUM, Strain/Indicator: TA98, Metabolic Activation: NONE, Method: STANDARD PLATE.
The mark [2] stands for this setting: Test System: AMES SALMONELLA TYPHIMURIUM, Strain/Indicator: TA98, Metabolic Activation: RAT, LIVER, S-9, AROCLOR 1254, Method: STANDARD PLATE.
Where [3] appears, read: Test System: AMES SALMONELLA TYPHIMURIUM, Strain/Indicator: TA1535, Metabolic Activation: NONE, Method: STANDARD PLATE.

The source of these data is PubChem BioAssay AID1259407 (Chemical Carcinogenesis Research Information System (CCRIS), 2018).

Calls of active or inactive are those of the source. No rule for the calls is given here.

Regarding `Cn1c([N+](=O)[O-])cnc1-c1nnc(N)s1`, the mutagenic call was “active; positive (structural changes)” (End Point: IN VITRO CHROMOSOMAL ABERRATIONS, Test System: HUMAN PERIPHERAL LYMPHOCYTES, Species: HUMAN, Strain/Sex: MALE, FEMALE, Metabolic Activation: NONE); “active; positive (structural changes)” (End Point: IN VITRO CHROMOSOMAL ABERRATIONS, Test System: HUMAN PERIPHERAL LYMPHOCYTES, Species: HUMAN, Strain/Sex: MALE, FEMALE, Metabolic Activation: RAT, LIVER, S-9, AROCLOR 1254 (5%)); “active; positive (structural changes)” (End Point: IN VITRO CHROMOSOMAL ABERRATIONS, Test System: HUMAN PERIPHERAL LYMPHOCYTES, Species: HUMAN, Strain/Sex: MALE, FEMALE, Metabolic Activation: RAT, LIVER, S-9, AROCLOR 1254 (10%)); “active; positive (increase in micronucleated cells)” (End Point: IN VITRO MICRONUCLEUS, Test System: L5178Y MOUSE LYMPHOMA (TK+/-), Metabolic Activation: NONE); “active; positive (increase in micronucleated cells)” (End Point: IN VITRO MICRONUCLEUS, Test System: L5178Y MOUSE LYMPHOMA (TK+/-), Metabolic Activation: RAT, LIVER, S-9, AROCLOR 1254); “active; positive” (End Point: IN VIVO MICRONUCLEUS, Test System: BONE MARROW POLYCHROMATIC ERYTHROCYTES, Species: RAT, Strain/Sex: SPRAGUE-DAWLEY/MALE, FEMALE). Besides, the mutagenic call is “active; positive” (End Point: IN VIVO MICRONUCLEUS, Test System: BONE MARROW POLYCHROMATIC ERYTHROCYTES, Species: RAT, Strain/Sex: SPRAGUE-DAWLEY/MALE, FEMALE, Route: ORAL); “active; positive” (Test System: AMES SALMONELLA TYPHIMURIUM, Strain/Indicator: TA98 (DNP-6), Metabolic Activation: NONE, Method: DESICCATOR); “active; positive” (Test System: AMES SALMONELLA TYPHIMURIUM, Strain/Indicator: TA98 (DNP-6), Metabolic Activation: NONE, Method: STANDARD PLATE); “active; positive” (Test System: AMES SALMONELLA TYPHIMURIUM, Strain/Indicator: TA98 (DNP-6), Metabolic Activation: RAT LIVER S-9, AROCLOR 1254, 10% (W/V), Method: DESICCATOR); “active; positive” (Test System: AMES SALMONELLA TYPHIMURIUM, Strain/Indicator: TA98 (DNP-6), Metabolic Activation: RAT LIVER S-9, AROCLOR 1254, 10% (W/V), Method: STANDARD PLATE); “inactive; negative” (Test System: AMES SALMONELLA TYPHIMURIUM, Strain/Indicator: TA98 (NR), Metabolic Activation: NONE, Method: DESICCATOR). Moreover, the mutagenic call runs as follows: (Test System: AMES SALMONELLA TYPHIMURIUM, Strain/Indicator: TA98 (NR), Metabolic Activation: NONE, Method: STANDARD PLATE) “inactive; negative”; (Test System: AMES SALMONELLA TYPHIMURIUM, Strain/Indicator: TA98 (NR), Metabolic Activation: RAT LIVER S-9, AROCLOR 1254, 10% (W/V), Method: DESICCATOR) “inactive; negative”; (Test System: AMES SALMONELLA TYPHIMURIUM, Strain/Indicator: TA98 (NR), Metabolic Activation: RAT LIVER S-9, AROCLOR 1254, 10% (W/V), Method: STANDARD PLATE) “inactive; negative”; (Test System: AMES SALMONELLA TYPHIMURIUM, Strain/Indicator: TA98, Metabolic Activation: NONE, Method: DESICCATOR) “active; positive”; under setting [1], “active; positive”; (Test System: AMES SALMONELLA TYPHIMURIUM, Strain/Indicator: TA98, Metabolic Activation: RAT LIVER S-9, AROCLOR 1254, 10% (W/V), Method: DESICCATOR) “active; positive”. For the same compound, the mutagenic call was “active; positive” (Test System: AMES SALMONELLA TYPHIMURIUM, Strain/Indicator: TA98, Metabolic Activation: RAT LIVER S-9, AROCLOR 1254, 10% (W/V), Method: STANDARD PLATE); “active; positive” under setting [2]; “active; positive” (Test System: AMES SALMONELLA TYPHIMURIUM, Strain/Indicator: TA102, Metabolic Activation: NONE, Method: STANDARD PLATE); “active; positive” (Test System: AMES SALMONELLA TYPHIMURIUM, Strain/Indicator: TA102, Metabolic Activation: RAT, LIVER, S-9, AROCLOR 1254, Method: STANDARD PLATE).

Take `C=C(CC)C(=O)c1ccc(OCC(=O)O)c(Cl)c1Cl`: the mutagenic call was “inactive; negative” (Test System: AMES SALMONELLA TYPHIMURIUM, Strain/Indicator: TA97, Metabolic Activation: HAMSTER, LIVER, S-9, AROCLOR 1254 (10 OR 30%), Method: PREINCUBATION); “inactive; negative” (Test System: AMES SALMONELLA TYPHIMURIUM, Strain/Indicator: TA97, Metabolic Activation: NONE, Method: PREINCUBATION); “inactive; negative” (Test System: AMES SALMONELLA TYPHIMURIUM, Strain/Indicator: TA97, Metabolic Activation: RAT, LIVER, S-9, AROCLOR 1254 (10 OR 30%), Method: PREINCUBATION); “inactive; negative” (Test System: AMES SALMONELLA TYPHIMURIUM, Strain/Indicator: TA98, Metabolic Activation: HAMSTER, LIVER, S-9, AROCLOR 1254 (10 OR 30%), Method: PREINCUBATION); “inactive; negative” (Test System: AMES SALMONELLA TYPHIMURIUM, Strain/Indicator: TA98, Metabolic Activation: NONE, Method: PREINCUBATION); “inactive; negative” (Test System: AMES SALMONELLA TYPHIMURIUM, Strain/Indicator: TA98, Metabolic Activation: RAT, LIVER, S-9, AROCLOR 1254 (10 OR 30%), Method: PREINCUBATION). In addition, the mutagenic call by setting is: (Test System: AMES SALMONELLA TYPHIMURIUM, Strain/Indicator: TA100, Metabolic Activation: HAMSTER, LIVER, S-9, AROCLOR 1254 (10 OR 30%), Method: PREINCUBATION) “inactive; negative”; (Test System: AMES SALMONELLA TYPHIMURIUM, Strain/Indicator: TA100, Metabolic Activation: NONE, Method: PREINCUBATION) “inactive; negative”; (Test System: AMES SALMONELLA TYPHIMURIUM, Strain/Indicator: TA100, Metabolic Activation: RAT, LIVER, S-9, AROCLOR 1254 (10 OR 30%), Method: PREINCUBATION) “inactive; negative”; (Test System: AMES SALMONELLA TYPHIMURIUM, Strain/Indicator: TA1535, Metabolic Activation: HAMSTER, LIVER, S-9, AROCLOR 1254 (10 OR 30%), Method: PREINCUBATION) “inactive; negative”; (Test System: AMES SALMONELLA TYPHIMURIUM, Strain/Indicator: TA1535, Metabolic Activation: NONE, Method: PREINCUBATION) “inactive; negative”; (Test System: AMES SALMONELLA TYPHIMURIUM, Strain/Indicator: TA1535, Metabolic Activation: RAT, LIVER, S-9, AROCLOR 1254 (10 OR 30%), Method: PREINCUBATION) “inactive; negative”.

On to `C/C=C\c1cc(OC)c(OC)cc1OC`, for which the mutagenic call was “inactive; negative” (Test System: AMES SALMONELLA TYPHIMURIUM, Strain/Indicator: TA97, Metabolic Activation: NONE, Method: STANDARD PLATE); “inactive; negative” (Test System: AMES SALMONELLA TYPHIMURIUM, Strain/Indicator: TA97, Metabolic Activation: RAT, LIVER, S-9, AROCLOR 1254, Method: STANDARD PLATE); “inactive; negative” under setting [1]; “inactive; negative” under setting [2]; “inactive; negative” (Test System: AMES SALMONELLA TYPHIMURIUM, Strain/Indicator: TA100, Metabolic Activation: NONE, Method: STANDARD PLATE); “inactive; negative” (Test System: AMES SALMONELLA TYPHIMURIUM, Strain/Indicator: TA100, Metabolic Activation: RAT, LIVER, S-9, AROCLOR 1254, Method: STANDARD PLATE). In addition, the mutagenic call is, setting by setting: under setting [3], “active; positive”; (Test System: AMES SALMONELLA TYPHIMURIUM, Strain/Indicator: TA1535, Metabolic Activation: RAT, LIVER, S-9, AROCLOR 1254, Method: STANDARD PLATE) “inactive; negative”; (Test System: AMES SALMONELLA TYPHIMURIUM, Strain/Indicator: TA1537, Metabolic Activation: NONE, Method: STANDARD PLATE) “inactive; negative”; (Test System: AMES SALMONELLA TYPHIMURIUM, Strain/Indicator: TA1537, Metabolic Activation: RAT, LIVER, S-9, AROCLOR 1254, Method: STANDARD PLATE) “inactive; negative”; (Test System: AMES SALMONELLA TYPHIMURIUM, Strain/Indicator: TA1538, Metabolic Activation: NONE, Method: STANDARD PLATE) “inactive; negative”; (Test System: AMES SALMONELLA TYPHIMURIUM, Strain/Indicator: TA1538, Metabolic Activation: RAT, LIVER, S-9, AROCLOR 1254, Method: STANDARD PLATE) “inactive; negative”. The mutagenic call (Test System: UDS RAT HEPATOCYTES, Strain/Indicator: THY INCORP, Metabolic Activation: NONE, Method: LIQUID SCINTILLATION COUNTING) is “active; positive”.

In the case of `[N-]=[N+]=NC[C@@H](O)[C@H](O)[C@H](O)[C@@H](O)CO`, the mutagenic call under setting [3] is “active; positive”.

As to `Nc1ccn(/C=C/C=O)c(=O)n1`, where the note is “Test System: AMES SALMONELLA TYPHIMURIUM, Strain/Indicator: HISD3052, Metabolic Activation: NONE, Method: STANDARD PLATE”, the mutagenic call was “active; positive”.
